According to ChEMBL document CHEMBL5653594, “ZD1839 (Iressa): an orally active inhibitor of epidermal growth factor signaling with potential for cancer therapy” (Cancer Res, 2002):

How the values were obtained:
[1] = test system: A-431; assay: Antitumor activity against human A-431 cells xenografted in Swiss nu/nu mouse assessed as reduction in c-fos mRNA expression at 200 mg/kg measured after 36 hrs by RT-PCR analysis relative to control; assay type: functional; set-up: scale not given: the % may be the effect or the level left
[2] = test system: A-431; assay: Antitumor activity against human A-431 cells xenografted in Swiss nu/nu mouse assessed as c-fos mRNA expression at 50 mg/kg measured after 6 to 36 hrs by RT-PCR analysis relative to control; assay type: functional; conditions: time 6-36 hrs
[3] = test system: A-431; assay: Antitumor activity against human A-431 cells xenografted in po dosed Swiss nu/nu mouse assessed as reduction in c-fos mRNA expression measured after 4 days by RT-PCR analysis; assay type: functional, organism-based; conditions: dose 12.5-200 mg/kg, time 4.0 day
[4] = test system: A-431; assay: Antitumor activity against human A-431 cells xenografted in Swiss nu/nu mouse assessed as reduction in c-fos mRNA expression at 50 mg/kg measured after 36 hrs by RT-PCR analysis relative to control; assay type: functional; set-up: scale not given: the % may be the effect or the level left

COc1cc2ncnc(Nc3ccc(F)c(Cl)c3)c2cc1OCCCN1CCOCC1 [GEFITINIB]
Activity [1]: >99%
Activity [2]: 5%
Activity [3]: Dose-Dependent Effect
Activity [4]: 94%
